Entries after “also recorded” stand apart in the source; their conditions may differ.
What was measured:
Format in all cases: cell-based, human
[1] = tested on: GPNMB surface expression on WM2664 melanoma cells; experiment: Flow cytometry of GPNMB surface expression, WM2664 cells; conditions: for GPNMB surface expression, flow cytometry GeoMean: WM2664, CR011 (anti-GPNMB) primary antibody; for GPNMB surface expression: melanoma cells (WM2664), 48 hours (Table 37, bottom right)
Experimental: The following day, cells were treated as indicated in the figures/legends, harvested with versene (Invitrogen), washed with PBS and incubated with primary antibody (10 μg/mL) diluted in staining buffer (PBS pH 7.4, 4% FBS, 0.1% sodium azide) for 30 minutes on ice. […] After incubation with primary antibody, samples were washed with staining buffer and then incubated with secondary antibody (PE-conjugated anti-human antibody; 1:100) for 30 minutes on ice. After incubation, samples were washed with staining buffer and examined on a Becton Dickinson FACSCalibur flow cytometer (BD Immunocytometry Systems, San Jose, Calif.). Data analysis was performed with Becton Dickinson Cell Quest software and the geometric mean fluorescence intensity (GeoMean) was determined for each sample.
For the data shown in Table 37, flow cytometry was performed on intact, non-permeabilized cells using the indicated primary monoclonal antibodies. The CR011 antibody utilized was not MMAE-conjugated, but is the same antibody used to generate CR011-vcMMAE. The results are reported as GeoMeans. For the data shown in the top panel of Table 37, A375 (melanoma) or SF539 (glioblastoma) cells were treated with the indicated concentrations of MEKi (U0126), RAFKi (553013) or ERKi (FR180204) for 12, 24 or 48 hours prior to analysis. For the data shown in the bottom left panel of Table 37, SKMEL2 (melanoma) cells were treated with MEKi (U0126; 10 uM), imatinib (20 uM), p38i (p38 MAPKi SB202190; 50 uM), NH4Cl (ammonium chloride; 20 mM) or CLQ (chloroquine; 20 uM) for 48 hours prior to analysis. For the data shown in the bottom right panel of Table 37, WM2664 (melanoma) cells were treated with MON (monensin) or MMPi (GM6001) for 48 hours prior to analysis.

[2] = tested on: shed GPNMB; experiment: GPNMB shedding: immunoblotting of conditioned media (supernatants); conditions: conditioned media of WM2664, UACC62; 48 hours (FIG. 7A, 7B)
Description: Shedding of membrane proteins is a common phenomenon that may affect ADC activity. To investigate potential GPNMB shedding, conditioned media collected from melanoma cell lines was immunoblotted for GPNMB (FIG. 7A). […] Shed GPNMB was also readily detected in conditioned media harvested from several other melanoma and glioblastoma cell lines examined, although a very low level of shed GPNMB was found in conditioned media harvested from A375 melanoma cells, a finding which is consistent with the low basal level of GPNMB expression by these cells.

[3] = tested on: GPNMB; experiment: Immunoblotting for GPNMB on whole-cell lysates of cancer cell lines after drug exposure; conditions: whole-cell lysates, 48 hours (FIG. 7)
Description: Cancer cell lines were of human origin and were obtained from the American Type Culture Collection (Manassas, Va.) and from the National Cancer Institute (Bethesda, Md.) and cultured in RPMI-1640 supplemented with 10% FBS (growth media). Sources of reagents were as follows: RAFKi (553013), MEKi (U0126), MEKi (PD98059), MEKi (444939), ERKi (FR180204), p38 MAPKi (SB202190), p38 MAPKi (SB203580), aurora kinase inhibitor (189404), JNK inhibitor (420119), MMPi (GM6001) were from EMD Chemicals (San Diego, Calif.). ERKi (A6355), RAFKi: (GW5074), ammonium chloride (NH4Cl), chloroquine, monensin, cyclohexamide and emetine were from Sigma (Saint Louis, Mo.). HSP90i (geldanamycin) was from AG Scientific (San Diego, Calif.) and imatinib (Gleevec) was purchased from a pharmacy.
Cells were seeded in 6-well tissue culture dishes at a subconfluent density and allowed to attach overnight. For harvesting cell lysates, media was removed, cells were briefly washed with serum-free media and then 1× Tris-glycine SDS sample buffer (Invitrogen, Carlsbad, Calif.) supplemented with 10 mM dithiothreitol (Sigma) was added directly to the wells. Cell lysates were then collected and boiled for 10 minutes. For preparing conditioned media, drug treatments were performed in a minimum volume of growth media (1.5 mL/well). Following 48 hours of incubation, conditioned media was collected, briefly microfuged, mixed with an equal volume of 2× Tris-glycine SDS sample buffer (Invitrogen, Carlsbad, Calif.) supplemented with 20 mM dithiothreitol (Sigma) and boiled for 10 minutes. For cell lysates, samples were quantified and an equal quantity of protein/lane was resolved on 4-20% gradient polyacrylamide gels (Invitrogen) and then transferred to nitrocellulose filters (Invitrogen). The volume of conditioned media loaded/lane was adjusted based on the protein concentration determined in the respective cell lysates. Immunoblotting was performed using standard procedures and the following primary antibodies: MARTI (sc-20032), TYRP2 (sc-25544), TYRP1 (sc-25543), PMEL17 (sc-15010), MAGEA1 (sc-20033), MCSP (sc-20162), MTf (sc-26651), MCAM (sc-18942), pp-ERK (sc-7976) and ERK (sc-94) (preceding antibodies were purchased from Santa Cruz Biotechnologies, Santa Cruz, Calif.), GPNMB (AF2550; R & D Systems, Minneapolis Minn.), actin (A5060; Sigma). Following incubation with the appropriate horseradish peroxidase-conjugated secondary antibodies, enhanced chemiluminescence (GE Healthcare, Chalfont St. Giles, United Kingdom) was used for detection.

Row | SMILES | GPNMB surface expression, flow cytometry GeoMean ([1]; MMPi 25 uM) | GPNMB surface expression, flow cytometry GeoMean ([1]; MMPi 50 uM) | GPNMB surface expression, flow cytometry GeoMean ([1]; MMPi 100 uM) | GPNMB surface expression [1] | GPNMB shedding [2] | faster migrating ~110 kDa GPNMB species [3] | slowest migrating cell-associated ~130 kDa GPNMB species [3] | GPNMB surface expression, flow cytometry GeoMean ([1]; MON 250 nM) | GPNMB surface expression, flow cytometry GeoMean ([1]; MON 500 nM)
1 | CNC(=O)[C@H](Cc1c[nH]c2ccccc12)NC(=O)[C@@H](CC(=O)NO)CC(C)C [GM6001] | 55.9 | 68.9 | 66.8 | increased GPNMB surface expression | decreased or eliminated |  |  |  | 
2 | CC[C@@]1([C@@H]2O[C@@H]([C@H]3O[C@@](O)(CO)[C@H](C)C[C@@H]3C)C[C@@H]2C)CC[C@H]([C@]2(C)CC[C@]3(C[C@H](O)[C@@H](C)[C@@H]([C@@H](C)[C@@H](OC)[C@H](C)C(=O)O)O3)O2)O1 [monensin] |  |  |  | increased GPNMB surface expression | decreased or eliminated; also recorded: strong inhibition | increased the expression | decreased or eliminated | 88.9 | 86.8

Reference: patent US20140314780A1, “Compositions Using Antibodies Directed to GPNMB and Uses Thereof” (Celldex Therapeutics, Inc., priority 2008, published 2014)
